In article PMC12948427 (The Journal of Clinical Investigation, 2025):
“And” between values parts separate entries of the source, which are not always exact repeats. Identical values can stand only once. Like-named read-outs stand apart in the source and are kept apart here.

How the values were obtained:
[1] = system: HCoV-OC43; assay: Infection of ALI-cultured primary HBEs, HCoV-OC43; format: cell-based
Method: (§1) Primary HBEs at passage 3 or earlier were seeded at a density of 40,000 cells per well in Transwell inserts (Costar 6.5 mm Transwell, 0.4 μm Pore Polyester Membrane Inserts, catalog 3470) for expansion culture. The cells were cultured in expansion medium (PneumaCult-Ex Plus Medium, catalog 05040) until tight junctions were formed. Once tight junctions were established, the expansion medium in the upper chamber was discarded, and the medium in the lower chamber was replaced with ALI differentiation medium (PneumaCult-ALI Medium, catalog 05001). Cells were maintained under ALI conditions, with the medium being changed every 2 days. The differentiation process was carried out for 21 days, during which cell morphology and differentiation status were monitored. The fully differentiated cells were infected with HCoV-OC43, HCoV-229E, HCoV-NL63, or SARS-CoV-2 (MOI = 1), and fresh medium was changed 1 hour postinfection. Specific peptide was added into the medium every 24 hours. At 96 hours postinfection, cells in Transwell inserts were washed with 140 μL PBS per insert, and the wash fluid was collected to extract virus RNA followed by RT-qPCR. […] The fluorescence was measured using ImageJ (NIH).

[2] = Tolerability of RTB in mice; conditions: high concentrations (500 mg/kg)
[3] = system: MERS VLP; format: cell-based, MERS-CoV
[4] = biological target: hHGS 1-390-6 × HIS protein (Homo sapiens, UniProt O14964); assay: biochemical
[5] = system: HCoV-NL63; assay: In vitro antiviral activity assay (IFA), HCoV-NL63; format: cell-based; conditions: for Inhibition rate (IFA): Fig 5C, MOI 0.1, 48 h
[6] = system: MHV; set-up: species or system C57BL/6 mice; conditions: mouse, in vivo
[7] = system: MHV; format: cell-based, mouse hepatitis virus (MHV); conditions: for Inhibition, combination matrix (Figure S12C): Molnupiravir 0 uM; for Inhibition, combination matrix (Figure S12D): nirmatrelvir 0 uM
[8] = system: HCoV-NL63; assay: Infection of ALI-cultured primary HBEs, HCoV-NL63; format: cell-based
Method: as §1

[9] = system: SARS-CoV-2 M protein; format: cell-based
[10] = system: MHV; format: cell-based, mouse hepatitis virus (MHV)
[11] = system: MHV; assay: TEM of MHV-infected 17Cl-1 cells (virions, DMVs); format: cell-based, mouse hepatitis virus (MHV)
Method: WT or Hgs-KO 17Cl-1 cells were grown on ACLAR films and infected with MHV. At 24 hpi the cells were rinsed with PBS and then fixed with 2.5% glutaraldehyde in PBS overnight. The fixed cells were rinsed with 0.1 M PB 2 times and then double-distilled water 2 times, each time for 6 minutes. They were submerged in an aqueous solution containing 1% osmium tetraoxide and 1.5% potassium ferricyanide for 1.5 hours and then rinsed with double-distilled water 3 times, each time for 6 minutes. The samples underwent a dehydration process in which the solution submerging the samples was sequentially replaced by 30%, 50%, 70%, 80%, 90%, 100%, 100%, and 100% ethanol solutions, with each solution submerging the sample for 6 minutes. The samples were then infiltrated sequentially with 100% acetone for 6 minutes 2 times, 3:1 acetone/EMbed 812 resin for 1 hour, 1:1 acetone/EMbed 812 resin for 2 hours, 1:3 acetone/EMbed 812 resin for 3 hours, and 100% EMbed 812 resin for 12 hours 2 times. The samples were embedded in EMbed 812 resin and underwent solidification at 45°C for 12 hours and then 60°C for 48 hours. Sectioning was performed with a Leica EM UC6 ultramicrotome. The sections were stained with 2% uranyl acetate for 15 minutes and 1% lead citrate for 5 minutes. Electron micrographs were acquired with an FEI Tecnai Spirit 120 kV transmission electron microscope operating at 100 kV accelerating voltage.

[12] = system: SARS-CoV-2 Omicron BA.5; assay: microbe, parasite or virus in culture; format: cell-based; conditions: Severe acute respiratory syndrome coronavirus 2, 24 h, read-out: EC50 (IFA)
[13] = system: MHV; assay: microbe, parasite or virus in culture; conditions: Murine coronavirus, 24 h, read-out: EC50, rescue of coronavirus-induced cytopathic effects
[14] = system: HCoV-OC43; assay: In vitro antiviral activity assay (IFA), HCoV-OC43; format: cell-based; conditions: for Inhibition rate (IFA): Fig 5E, MOI 0.1, 48 h
[15] = TEM, RTB-treated versus DMSO, sheet does not name what is scored

Chain of hHGS 1-390-6 × HIS protein (O14964 1-390): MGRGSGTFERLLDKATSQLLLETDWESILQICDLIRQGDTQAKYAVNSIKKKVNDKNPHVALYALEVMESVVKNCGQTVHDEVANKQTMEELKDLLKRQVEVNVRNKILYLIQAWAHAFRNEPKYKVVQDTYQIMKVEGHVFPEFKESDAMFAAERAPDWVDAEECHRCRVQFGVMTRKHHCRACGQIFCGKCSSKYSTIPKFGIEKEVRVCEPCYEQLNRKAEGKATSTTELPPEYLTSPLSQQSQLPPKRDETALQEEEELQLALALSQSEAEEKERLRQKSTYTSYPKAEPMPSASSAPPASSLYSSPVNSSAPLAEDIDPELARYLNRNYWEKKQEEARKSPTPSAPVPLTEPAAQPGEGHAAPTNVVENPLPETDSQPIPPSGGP

## CCCC(=O)OC[C@@H](OC(=O)CCC)[C@@H](OC(=O)CCC)[C@H](Cn1c2nc(=O)[nH]c(=O)c-2nc2cc(C)c(C)cc21)OC(=O)CCC [RTB, riboflavin tetrabutyrate]
[1]; Fig 5I, HCoV-OC43 MOI = 1, ALI-cultured HBEs, 96 h, RTB dose 5 (unit not given)
  extracellular viral gRNA levels (RT-qPCR): 24 and 18 and 15
[1]; HCoV-OC43
  inhibition of infection in ALI cultures of HBEs: significant, dose-dependent inhibition
[2]
  cytotoxicity or adverse effects in mice: no cytotoxicity or adverse effects
[3]
  VLPs' release: concentration-dependent inhibition
[4]
  Kd: 4.82 µM
[5]; conc 30 (unit not given)
  Inhibition rate (IFA): -14.9284% and -12.1937% and -12.3632%
[5]; conc 100 (unit not given)
  Inhibition rate (IFA): -16.9149% and -18.5591% and -23.768%
[5]; conc 1000 (unit not given)
  Inhibition rate (IFA): -12.8364% and -7.587% and -17.221%
[5]; conc 10000 (unit not given)
  Inhibition rate (IFA): 59.7114% and 61.0537% and 58.023%
[5]; conc 25000 (unit not given)
  Inhibition rate (IFA): 99.7675% and 100.17% and 100.28%
[5]; Human coronavirus NL63, 48 h, read-out: EC50 (IFA)
  EC50: 8.46 µM
[6]
  pulmonary viral titers: lowered pulmonary viral titers
  viral gRNA: significantly reduced viral gRNA
  virus-induced lung injury: markedly attenuated virus-induced lung injury
[7]; RTB 0.01 uM
  Inhibition, combination matrix (Figure S12C): -3.196
  Inhibition, combination matrix (Figure S12D): 0.02357
[7]; RTB 0.03 uM
  Inhibition, combination matrix (Figure S12C): 0.4191
  Inhibition, combination matrix (Figure S12D): 0.6847
[7]; RTB 0.1 uM
  Inhibition, combination matrix (Figure S12C): 5.187
  Inhibition, combination matrix (Figure S12D): 4.267
[7]; RTB 0.3 uM
  Inhibition, combination matrix (Figure S12C): 0.1333
  Inhibition, combination matrix (Figure S12D): 7.699
[7]; RTB 1 uM
  Inhibition, combination matrix (Figure S12C): 5.1
  Inhibition, combination matrix (Figure S12D): 9.0154
[7]; RTB 3 uM
  Inhibition, combination matrix (Figure S12C): 12.0762
  Inhibition, combination matrix (Figure S12D): 25.2258
[7]; RTB 10 uM
  Inhibition, combination matrix (Figure S12C): 64.6863
  Inhibition, combination matrix (Figure S12D): 39.9859
[7]; RTB 25 uM
  Inhibition, combination matrix (Figure S12C): 94.0563
  Inhibition, combination matrix (Figure S12D): 93.5156
[7]; combined with molnupiravir
  combination effect in vitro: additive effects
[7]; combined with nirmatrelvir
  combination effect in vitro: additive effects
[8]; Fig 5J, HCoV-NL63 MOI = 1, ALI-cultured HBEs, 96 h, RTB dose 5 (unit not given)
  extracellular viral gRNA levels (RT-qPCR): 46 and 42 and 25
[8]; HCoV-NL63
  inhibition of infection in ALI cultures of HBEs: significant, dose-dependent inhibition
[9]
  Colocalization of M with Sec61b (Manders' coefficient): 0.92 and 0.994 and 0.992
  M protein localization: induced M retention in the ER
  Sec61b colocalization coefficient (Figure 7I): 0.867 and 0.94 and 0.917
[10]; Ctr 17Cl-1 cells, 24 hpi
  Extracellular MHV gRNA (Figure S11A): 2.752 and 2.754 and 2.756
[10]; Ctr 17Cl-1 cells, 48 hpi
  Extracellular MHV gRNA (Figure S11A): 3.4199 and 3.426 and 3.424
[10]; Ctr 17Cl-1 cells, 72 hpi
  Extracellular MHV gRNA (Figure S11A): 4.001 and 4.062 and 3.972
[10]; Hgs-KO1 17Cl-1 cells, 24 hpi
  Extracellular MHV gRNA (Figure S11A): 1.499 and 1.531 and 1.548
[10]; Hgs-KO1 17Cl-1 cells, 48 hpi
  Extracellular MHV gRNA (Figure S11A): 1.985 and 1.987 and 1.914
[10]; Hgs-KO1 17Cl-1 cells, 72 hpi
  Extracellular MHV gRNA (Figure S11A): 3.343 and 3.307 and 3.373
[10]; Hgs-KO2 17Cl-1 cells, 24 hpi
  Extracellular MHV gRNA (Figure S11A): 1.087 and 1.162 and 1.202
[10]; Hgs-KO2 17Cl-1 cells, 48 hpi
  Extracellular MHV gRNA (Figure S11A): 1.5876 and 1.652 and 1.594
[10]; Hgs-KO2 17Cl-1 cells, 72 hpi
  Extracellular MHV gRNA (Figure S11A): 2.484 and 2.493 and 2.452
[10]; MHV, Hgs-KO 17Cl-1, RTB 25 μM or RDV 5 μM, compared with DMSO-treated Hgs-KO cells
  antiviral activity in Hgs-KO cells: failed to inhibit viral infection
[11]; 25 μM, MHV-infected 17Cl-1, hpi = 24 h
  DMVs, the replication organelles (TEM): not significantly changed
[11]; 25 μM, MHV-infected 17Cl-1, hpi = 24 h, compared with DMSO
  intracellular mature virions (TEM): significantly decreased
[11]; RTB-treated, DMSO: 19
  Negative (count, Figure 7G): 2
[11]; RTB-treated, DMSO: 41
  Positive (count, Figure 7G): 58
[11]; [15]
  Negative (number of cells counted, Figure 7H): 37
  Positive (number of cells counted, Figure 7H): 23
[12]
  EC50: 4.09 µM
[13]
  EC50: 3.48 µM
[14]; Betacoronavirus 1, OC43, 48 h, read-out: EC50 (IFA)
  EC50: 13.9 µM
[14]; conc 10 (unit not given)
  Inhibition rate (IFA): 33.23% and 29.76% and 39.01%
[14]; conc 30 (unit not given)
  Inhibition rate (IFA): 30.69% and 22.69% and 29.93%
[14]; conc 100 (unit not given)
  Inhibition rate (IFA): 21.56% and 24.49% and 30.14%
[14]; conc 300 (unit not given)
  Inhibition rate (IFA): 23.53% and 24.32% and 29.19%
[14]; conc 1000 (unit not given)
  Inhibition rate (IFA): 26.08% and 27.96% and 36.83%
[14]; conc 3000 (unit not given)
  Inhibition rate (IFA): 25.37% and 28.07% and 29.03%
[14]; conc 10000 (unit not given)
  Inhibition rate (IFA): 32.25% and 33.08% and 32.48%
[14]; conc 25000 (unit not given)
  Inhibition rate (IFA): 79.43% and 69.76% and 58.83%
